Test results: patent publication US6166290A, “Glutathione-S-conjugate transport in plants” (The Trustees of the University of Pennsylvania, priority 1997, dated 2000)

Columns and labels:
[1] = tested on: vacuolar membrane vesicles purified from DTY167 cells (ycf1Δ mutant); format: biochemical, Saccharomyces cerevisiae; conditions: for DNP-GS uptake plus the compound indicated: 3 mM MgATP (omitted with MgAMP-PNP), MgAMP-PNP 3 mM, bafilomycin A1 0.5 μM, FCCP 5 μM, gramicidin D 5 μM, NH4Cl 1 mM; for DNP-GS uptake as percentage of control plus the compound indicated: as Table 1 concentrations
Protocol: (§1) For the routine preparation of vacuolar membrane vesicles, 15 ml of stationary phase cultures of DTY165 or DTY167 were diluted into 1-liter volumes of fresh YPD medium, grown for 24 hours at 30° C. to an OD600 nm of approximately 0.8 and collected by centrifugation. After washing with distilled water, the cells were converted to spheroplasts with Zymolyase 20T (ICN) (Kim et al., 1994, supra) and intact vacuoles were isolated by flotation centrifugation of spheroplast lysates on Ficoll 400 step gradients as described by Roberts et al. (1991, Methods. Enzymol. 194:644-661). Both the spheroplast lysis buffer and Ficoll gradients contained 2 mg/ml bovine serum albumin, 1 μg/ml aprotinin, 1 μg/ml leupeptin, 1 μg/ml pepstatin, and 1 mM PMSF to minimize proteolysis. The resulting vacuole fraction was vesiculated in 5 mM MgCl2, 25 mM KCl, 10 mM Tris-Mes (pH 6.9) containing 2 mg/ml bovine serum albumin, 1 μg/ml aprotinin, 1 μg/ml leupeptin, 1 μg/ml pepstatin, and 1 mM PMSF, pelleted by centrifugation at 37,000× g for 25 min, and resuspended in suspension medium (1.1 M glycerol, 2 mM dithiothreitol, 1 mM Tris-EGTA, 2 mg/ml bovine serum albumin, 1 μg/ml aprotinin, 1 μg/ml leupeptin, 1 μg/ml pepstatin, 1 mM PMSF, 5 mM Tris-Mes, pH 7.6) (Kim et al., 1995, J. Biol. Chem. 270:2630-2635).
(§2) Unless otherwise indicated, [^3 H]DNP-GS uptake was measured at 25° C. in 200 μl reaction volumes containing 3 mM ATP, 3 mM MgSO4, 5 μM gramicidin-D, 10 mM creatine phosphate, 16 units/ml creatine kinase, 50 mM KC 1, 1 mg/ml bovine serum albumin, 400 mM sorbitol, 25 mM Tris-Mes (pH 8.0), and 66.2 μM [^3 H]DNP-GS (8.7 mCi/mmol) (Li et al., 1995, supra). […] Uptake was initiated by the addition of vacuolar membrane vesicles (10-15 μg of membrane protein), brief mixing of the samples on a vortex mixer and uptake was then allowed to proceed for 1-60 minutes. Uptake was terminated by the addition of 1 ml of ice-cold wash medium (400 mM sorbitol, 3 mM Tris-Mes, pH 8.0) and vacuum filtration of the suspension through prewetted Millipore HA cellulose nitrate membrane filters (pore diameter, 0.45 μm). The filters were rinsed twice with 1 ml of ice-cold wash medium and air-dried, and radioactivity was determined by liquid scintillation counting in BCS mixture (Amersham Corp.). Nonenergized [^3 H]DNP-GS uptake and extravesicular solution trapped on the filters were enumerated by the same procedure except that ATP and Mg^2 +were omitted from the uptake medium.

[2] = target: T1, YCF1 (vacuolar membrane vesicles purified from DTY165 cells) (Saccharomyces cerevisiae, UniProt P39109); assay: [3H]DNP-GS uptake by vacuolar membrane vesicles purified from DTY165 cells; format: biochemical; conditions: for DNP-GS uptake plus the compound indicated: 3 mM MgATP (omitted with MgAMP-PNP), MgAMP-PNP 3 mM, bafilomycin A1 0.5 μM, FCCP 5 μM, gramicidin D 5 μM, NH4Cl 1 mM; for DNP-GS uptake as percentage of control plus the compound indicated: as Table 1 concentrations
T1 construct: endogenous in cells; host or cells: S. cerevisiae DTY165 (wild type YCF1), vacuolar membrane vesicles
Protocol: as §1, §2

[3] = target: T1, YCF1 (vacuolar membrane vesicles purified from DTY165 cells); assay: biochemical; format: biochemical
Protocol: (§3) In experiments involving cadmium transport, dithiothreitol and EGTA were removed from the suspension medium to prevent the attenuation of YCF1-dependent Cd^2+ transport otherwise exerted by these compounds. Vesiculated vacuolar membranes were subjected to three cycles of 50-fold dilution into simplified suspension medium (1.1 M glycerol, 5 mM Tris-Mes, pH 8.0), centrifugation at 100,000× g for 35 minutes and resuspension in the same medium before use.
(§4) Singly radiolabeled ^109 Cd.GSn and doubly radio-labeled ^109 Cd[^3 H].GS^n complexes were prepared by sequential gel-filtrationand anion-exchange chromatography of the reaction products generated by incubating 20 mM ^109 CdSO4 (78.4 mCi/mmol) with 40 mM GSH or 40 mM [^3 H]GSH (240 mCi/mmol) in 15 ml 10 mM phosphate buffer (pH 8.0) containing 150 mM KNO3 at 45° C. for 24 hours. For gel-filtration, 2 ml aliquots of the reaction mixture were applied to a column (40×1.5 cm ID) packed with water-equilibrated Sephadex G-1 5, eluted with deionized water and ^109 Cd and/or ^3 H in the fractions was measured by liquid scintillation counting. The fractions encompassed by each of the two ^109 Cd.GSn peaks identified were pooled, lyophilized and redissolved in 4 ml of loading buffer (5 mM Tris-Mes, pH 8.0). For anion-exchange chromatography, 0.5 ml aliquots of the resuspended lyophilizates from gel-filtration chromatography were applied to a Mono-Q HR5/5 column (Pharmacia) equilibrated with the same buffer. Elution was with a linear gradient of NaCl (0.5 ml/minute; 0-500 mM) dissolved in loading buffer. The individual fractions corresponding to the major peaks of ^109 Cd obtained from the Mono-Q column (one each for the peaks resolved by gel-filtration chromatography) were pooled, lyophilized and resuspended in 4 ml deionized water after liquid scintillation counting.
(§5) MgATP-energized, uncoupler-insensitive ^109 Cd^2+ uptake by vacuolar membrane vesicles was measured at 25° C. in 200 μl reaction volumes containing 3 mM ATP, 3 mM MgSO4, 5 μM gramicidin-D, 10 mM creatine phosphate, 16 units/ml creatine kinase, 50 mM KCl, 400 mM sorbitol, 25 mM Tris-Mes (pH 8.0) and the indicated concentrations of ^109 CdSO4, GSH or ^109 Cd- and/or ^3 H-labeled purified Cd.GSn complexes as described herein except that the wash media contained 100 μM CdSO4 in addition to sorbitol (400 mM) and Tris-Mes (3 mM, pH 8.0).

[4] = tested on: vacuolar membrane vesicles purified from DTY167 cells (ycf1Δ mutant); format: biochemical, Saccharomyces cerevisiae
Protocol: as §3, §4, §5

[5] = 5 μM gramicidin D, GSH, GSSG 1 mM, GS-conjugates 100 μM
[6] = 5 μM gramicidin D, GSH, GSSG 1 mM, GS-conjugates 100 μM, 10 min
[7] = 50 μM 109Cd.GS2, bafilomycin A1 0.5 μM, FCCP 5 μM, gramicidin-D 5 μM, NH4Cl 1 mM
[8] = as Table 7 concentrations, 10 min

T1 sequence (P39109 whole entry): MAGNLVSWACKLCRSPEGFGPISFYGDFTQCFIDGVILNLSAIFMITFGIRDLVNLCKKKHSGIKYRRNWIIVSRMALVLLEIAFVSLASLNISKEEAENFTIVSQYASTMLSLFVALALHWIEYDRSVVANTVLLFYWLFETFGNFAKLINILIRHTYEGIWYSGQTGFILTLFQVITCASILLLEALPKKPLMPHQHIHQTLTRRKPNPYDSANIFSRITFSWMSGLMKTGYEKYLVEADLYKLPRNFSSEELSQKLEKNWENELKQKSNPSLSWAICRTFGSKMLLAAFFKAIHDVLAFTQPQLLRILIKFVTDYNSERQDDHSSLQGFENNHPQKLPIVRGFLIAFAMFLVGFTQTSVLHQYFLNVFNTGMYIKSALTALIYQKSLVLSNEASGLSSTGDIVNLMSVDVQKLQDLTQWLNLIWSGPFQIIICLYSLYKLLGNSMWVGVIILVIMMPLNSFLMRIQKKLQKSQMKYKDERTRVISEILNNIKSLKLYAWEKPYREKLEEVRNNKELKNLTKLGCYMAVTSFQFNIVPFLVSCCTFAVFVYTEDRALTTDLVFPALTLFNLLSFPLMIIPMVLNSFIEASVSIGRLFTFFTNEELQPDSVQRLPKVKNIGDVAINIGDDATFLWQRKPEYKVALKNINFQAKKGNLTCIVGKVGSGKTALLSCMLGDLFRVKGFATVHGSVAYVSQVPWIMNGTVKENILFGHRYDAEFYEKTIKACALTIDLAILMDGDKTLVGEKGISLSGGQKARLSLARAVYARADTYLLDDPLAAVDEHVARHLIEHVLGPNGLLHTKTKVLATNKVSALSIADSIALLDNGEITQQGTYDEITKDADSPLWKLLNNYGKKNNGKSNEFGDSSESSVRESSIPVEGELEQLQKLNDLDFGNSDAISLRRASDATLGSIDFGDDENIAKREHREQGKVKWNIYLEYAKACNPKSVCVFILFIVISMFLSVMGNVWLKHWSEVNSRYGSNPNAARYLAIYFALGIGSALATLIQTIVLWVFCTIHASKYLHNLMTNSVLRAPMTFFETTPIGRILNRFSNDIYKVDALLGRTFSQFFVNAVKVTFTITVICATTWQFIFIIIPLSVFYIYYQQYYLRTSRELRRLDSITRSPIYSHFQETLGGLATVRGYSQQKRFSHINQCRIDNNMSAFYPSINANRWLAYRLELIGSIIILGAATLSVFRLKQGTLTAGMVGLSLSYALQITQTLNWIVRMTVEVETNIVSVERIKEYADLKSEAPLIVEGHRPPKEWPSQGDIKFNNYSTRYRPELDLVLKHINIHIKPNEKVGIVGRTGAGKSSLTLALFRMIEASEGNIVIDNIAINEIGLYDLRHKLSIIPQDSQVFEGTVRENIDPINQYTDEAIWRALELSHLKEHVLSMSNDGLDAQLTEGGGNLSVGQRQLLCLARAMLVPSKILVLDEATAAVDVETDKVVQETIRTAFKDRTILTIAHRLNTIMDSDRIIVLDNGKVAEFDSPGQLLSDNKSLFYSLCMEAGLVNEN

## [N-]=[N+]=Nc1ccc(C(=O)CSC[C@H](NC(=O)CC[C@H](N)C(=O)O)C(=O)NCC(=O)O)cc1 [Azidophenacyl-GS]
[1]; [5]
  MgATP-dependent, uncoupler-insensitive DNP-GS uptake plus compound: 5.2 ± 0.3 nmol/mg/10 minutes
[1]; [6]
  MgATP-dependent, uncoupler-insensitive DNP-GS uptake as percentage of control: 80.0%
[2]; [5]
  MgATP-dependent, uncoupler-insensitive DNP-GS uptake plus compound: 16.0 ± 1.4 nmol/mg/10 minutes
[2]; [6]
  MgATP-dependent, uncoupler-insensitive DNP-GS uptake as percentage of control: 33.5%
[2]; 100 μM compound
  inhibition of DNP-GS uptake: about 50%

## MgATP
[1]; --MgATP, 66.2 μM DNP-GS
  DNP-GS uptake as percentage of control, MgATP omitted: 9.7%
  DNP-GS uptake, MgATP omitted: 1.5 ± 0.6 nmol/mg/10 minutes
[2]; 66.2 μM DNP-GS, 5 μM gramicidin D
  Vmax(MgATP) of uncoupler-insensitive DNP-GS uptake: 38.4±5.6 nmol/mg/10 minutes
[2]; --MgATP, 66.2 μM DNP-GS
  DNP-GS uptake as percentage of control, MgATP omitted: 2.8%
  DNP-GS uptake, MgATP omitted: 2.2 ± 0.4 nmol/mg/10 minutes
[2]; read-out: Km(MgATP) of uncoupler-insensitive DNP-GS uptake, 66.2 μM DNP-GS, 5 μM gramicidin D, 10 minutes
  Km: 86.5 ± 29.5 µM

## CO/C1=C\C(C)=C\[C@@H](C)[C@@H](O)[C@@H](C)C/C(C)=C/C=C/[C@H](OC)[C@@H]([C@@H](C)[C@@H](O)[C@H](C)[C@@]2(O)C[C@@H](O)[C@H](C)[C@@H](C(C)C)O2)OC1=O [Bafilomycin A1]
[1]; 66.2 μM DNP-GS
  DNP-GS uptake plus the compound indicated: 4.3 ± 0.3 nmol/mg/10 minutes
[1]; 10 min
  DNP-GS uptake as percentage of control plus the compound indicated: 27.9%
[3]; [7]
  109Cd.GS2 uptake plus addition: 81.8 ± 6.0 nmol/mg/10 minutes
[3]; [8]
  109Cd.GS2 uptake as percentage of control: 76.6%
[3]; text to Table 7
  decrease of MgATP-dependent Cd.GS2 uptake: 22%
[4]; [7]
  109Cd.GS2 uptake plus addition: 12.8 ± 3.6 nmol/mg/10 minutes
[4]; [8]
  109Cd.GS2 uptake as percentage of control: 74.0%
[2]; 66.2 μM DNP-GS
  DNP-GS uptake plus the compound indicated: 43.2 ± 1.0 nmol/mg/10 minutes
[2]; 10 min
  DNP-GS uptake as percentage of control plus the compound indicated: 55.6%

## Nc1ncnc2c1ncn2[C@@H]1O[C@H](COP(=O)(O)OP(=O)(O)NP(=O)(O)O)[C@@H](O)[C@H]1O [MgAMP-PNP]
[1]; 66.2 μM DNP-GS
  DNP-GS uptake plus the compound indicated: 1.4 ± 0.3 nmol/mg/10 minutes
[1]; 10 min
  DNP-GS uptake as percentage of control plus the compound indicated: 9.1%
[2]; 66.2 μM DNP-GS
  DNP-GS uptake plus the compound indicated: 2.5 ± 0.5 nmol/mg/10 minutes
[2]; 10 min
  DNP-GS uptake as percentage of control plus the compound indicated: 3.2%

## OCCS [2-mercaptoethanol]
[3]; pretreatment with 2-mercaptoethanol
  inhibition of Cd2+ uptake by pretreatment of HMW-Cd.GS: > 80%
